Data reported in publication PMC9482650, “Quantitative fragmentomics allow affinity mapping of interactomes” (Nature Communications, 2022).
Primed or numbered codes have the meaning given here. Ends that are not written are not given here. * marks the point of attachment. Biotin = O=C1N[C@H]2[C@H](CS[C@H]2CCCCC(=O)*)N1; ttds″ = trioxatridecan-succinamic acid linker

Experiments:
MAGI1_2 PDZ = MAGI1_2 PDZ (Homo sapiens, UniProt Q96QZ7); experiment: Competitive fluorescence polarization (FP) assay; type: binding; settings: read-out: pKd FP (converted)
Chain of MAGI1_2 PDZ (Q96QZ7 472-554 limits assumed): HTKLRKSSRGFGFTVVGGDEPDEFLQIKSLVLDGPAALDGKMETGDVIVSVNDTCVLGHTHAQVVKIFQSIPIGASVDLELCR
Description: In direct fluorescence polarization assay, the fluorophore label can interfere with affinity determination and can cause large experimental bias. For this reason, affinities were determined with competitive FP measurements where the bound fluorescent peptide is chased out by increasing concentration of unlabeled competitor. In the fitting procedure, affinities of both peptides are considered. Each PDZ-domain was first tested with labeled peptides in direct experiments and then optimal labeled peptides were used in competitive experiments.
Double affinity-purified His6-MBP-PDZ were used for affinity measurements by FP. Fluorescence polarization was measured with a PHERAstar microplate reader by using 485 ± 20 nm and 528 ± 20 nm band-pass filters for excitation and emission, respectively. […] In total, the polarization of the probe was measured at eight different protein concentrations (whereas one contained no protein and corresponded to the free peptide). […] The dissociation constants of the direct and competitive FP experiments were obtained by fitting the measured direct data with a quadratic binding equation first and by fitting the measured competitive data with a competitive equation, using several obtained parameters from the first fit[71]. In part, competitive fluorescence polarization data were taken from refs. [22],[21]. […]

SYNJ2BP PDZ = SYNJ2BP PDZ (Homo sapiens, UniProt P57105); experiment: Holdup assay; type: binding
Chain of SYNJ2BP PDZ (P57105 13-100 limits assumed): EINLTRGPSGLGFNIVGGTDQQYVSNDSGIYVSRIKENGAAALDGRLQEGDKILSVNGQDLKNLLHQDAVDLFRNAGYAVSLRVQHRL

HaCat cell extract preys = experiment: PDZ-AP-MS, biotinylated MBP-PDZ baits; type: binding, human
Description: (§1) For PDZ-AP-MS experiments, PDZ domains were cloned as His6-AviTag-MBP-PDZ constructs. For co-expression with BirA, E. coli BL21(DE3) cells were co-transformed with His6-AviTag-MBP, or His6-AviTag-MBP-PDZ-coding and PET21a-BirA (Addgene #20857) plasmids. Simultaneously to IPTG induction, 50 µM biotin was added to the media. After cell harvesting, the lysis buffer was also supplemented with 50 µM biotin. Otherwise, expression and double affinity purification was identical as previously described in details.
(§2) For PBM-AP-MS experiments, 30 μl streptavidin resin was mixed with biotin or peptide at 50–60 μM concentration in 6–6.5 resin volume for 60 min to achieve resin saturation. For PDZ-AP-MS experiments, 30 μl streptavidin resin was mixed with biotinylated MBP or MBP-PDZ at 40-50 μM concentration in >1000× resin volume for 60 min to achieve resin saturation. After saturation, resins were washed a single time (ten resin volume, holdup buffer), and were depleted with biotin (1 mM biotin, 5–10 resin volume, 10 min). Finally, resins were washed two times. 0.5 ml 2 mg/ml cell lysate was added to the dry resin (1 mg total input) and were incubated at 4 °C for 2 h. Then, the beads were washed three times with 10 resin volume buffer containing: 50 mM TRIS pH 8.5, 150 mM NaCl, 1% TritonX-100, 10× complete EDTA-free protease inhibitor cocktail, 2 mM EDTA, 1 mM TCEP. Then, the beads were washed two times with ten resin volume buffer containing: 50 mM TRIS pH 8.5, 150 mM NaCl, 1 mM TCEP. Finally, captured protein was eluted from the resin in two steps and the eluted fractions were pooled. For each elution the beads were incubated for 30 min with three resin volume buffer containing: 20 mM TRIS pH8.5, 100 mM NaCl, 500 μM TCEP, 8 M Urea. Between each step, the beads were separated by mild centrifugation and the supernatant was removed by gentle pipetting.
(§3) The samples were precipitated with TCA 20% overnight at 4 °C and centrifuged at 14,000 rpm for 10 min at 4 °C. The protein pellets were washed twice with 1 mL cold acetone and air dried. The protein extracts were solubilized in urea 8 M, reduced with 5 mM TCEP for 30 min, and alkylated with 10 mM iodoacetamide for 30 min in the dark. Double digestion was performed at 37 °C with 500 ng endoproteinase Lys-C for 4 h, followed by fourfold dilution and an overnight digestion with 500 ng trypsin. Peptide mixtures were then desalted on C18 spin-column and dried on Speed-Vacuum.
(§4) Samples were analyzed using an Ultimate 3000 nano-RSLC (Thermo Scientific, San Jose California) coupled in line with a LTQ-Orbitrap ELITE mass spectrometer via a nano-electrospray ionization source (Thermo Scientific, San Jose California). […]

[1] = system: Jurkat cell extract preys; experiment: PDZ-AP-MS, biotinylated MBP-PDZ baits; type: binding, human
Description: as §1, §2, §3, §4

MPP5 [2] = experiment: PBM-AP-MS from Jurkat extract; type: binding, Homo sapiens; settings: prey MPP5 (Q8N3R9), PBM bait vs biotin control
From the text: Supplement 41467_2022_33018_MOESM5_ESM.xlsx, sheet "Jurkat HPV59-E6" | column: -LOG(P-Value); Difference log2; Ratio HPV59/biot

MPP7 = experiment: PBM-AP-MS from HaCat extract; type: binding, Homo sapiens; settings: prey MPP7 (Q5T2T1), PBM bait vs biotin control (Biot03)
MPP5 [3] = experiment: PBM-AP-MS from HaCat extract; type: binding, Homo sapiens; settings: prey MPP5 (Q8N3R9), PBM bait vs biotin control (Biot03)
From the text: (§5) Supplement 41467_2022_33018_MOESM5_ESM.xlsx, sheet "HaCat HPV59-E6" | column: -LOG(P-value); Difference log2; Ratio HPV59E6/Biot03

MAGI3 = experiment: PBM-AP-MS from HaCat extract; type: binding, Homo sapiens; settings: prey MAGI3 (Q5TCQ9), PBM bait vs biotin control (Biot03)
From the text: as §5

MAGI1 = experiment: PBM-AP-MS from Jurkat extract; type: binding, Homo sapiens; settings: Jurkat extract; prey MAGI1 (Q96QZ7); PBM bait vs biotin control
DLG1 = experiment: PBM-AP-MS from Jurkat extract; type: binding, Homo sapiens; settings: Jurkat extract; prey DLG1 (Q12959); PBM bait vs biotin control
LIN7C [4] = experiment: PBM-AP-MS from Jurkat extract; type: binding, Homo sapiens; settings: Jurkat extract; prey LIN7C (Q9NUP9); PBM bait vs biotin control
SCRIB = experiment: PBM-AP-MS from Jurkat extract; type: binding, Homo sapiens; settings: Jurkat extract; prey SCRIB (Q14160); PBM bait vs biotin control
CASK = experiment: PBM-AP-MS from HaCat extract; type: binding, Homo sapiens; settings: prey CASK (O14936), PBM bait vs biotin control (Biot03)
LIN7C [5] = experiment: PBM-AP-MS from HaCat extract; type: binding, Homo sapiens; settings: prey LIN7C (Q9NUP9), PBM bait vs biotin control (Biot03)

CC(C)C[C@H](NC(=O)[C@H](CCC(N)=O)NC(=O)[C@@H](NC(=O)[C@H](CCC(=O)O)NC(=O)[C@H](CCCNC(=N)N)NC(=O)[C@H](CCCNC(=N)N)NC(=O)[C@@H](NC(=O)[C@H](CCCNC(=N)N)NC(=O)[C@H](CO)NC(=O)[C@H](CO)NC(=O)CCC(=O)NCCCOCCOCCOCCCNC(=O)CCCC[C@@H]1SC[C@@H]2NC(=O)N[C@@H]21)[C@@H](C)O)[C@@H](C)OP(=O)(O)O)C(=O)O [HPV16-E6_-2P]
Kd (MAGI1_2 PDZ): 2520 µM

CC(C)C[C@H](NC(=O)[C@H](CCC(N)=O)NC(=O)[C@@H](NC(=O)[C@H](CCC(=O)O)NC(=O)[C@H](CCCNC(=N)N)NC(=O)[C@H](CCCNC(=N)N)NC(=O)[C@@H](NC(=O)[C@H](CCCNC(=N)N)NC(=O)[C@H](CO)NC(=O)[C@@H](N)CO)[C@@H](C)O)[C@@H](C)O)C(=O)O [HPV16E6]
Kd (SYNJ2BP PDZ): 6.56 µM

EXOC1
Difference log2 (HaCat cell extract preys; bait DLG1_2 PDZ vs MBP, enrichment of prey): 4.458 | Ratio DLG1_2/MBP (HaCat cell extract preys; bait DLG1_2 PDZ, fold change of prey): 21.9853

ANXA2
Difference log2 ([1]; bait SCRIB_2 PDZ vs MBP, enrichment of prey): 5.895 | Ratio SCRIB_2/MBP ([1]; bait SCRIB_2 PDZ, fold change of prey): 59.5253

HPV59-E6 ({Biotin-ttds″}-QRQARSETLV)
Difference log2 (MPP5 [2]): 4.755 | Ratio bait/biot (MPP5 [2]): 26.9941 | Difference log2 (MPP7): 5.592 | Ratio bait/Biot03 (MPP7): 48.2208 | Difference log2 (MPP5 [3]): 3.6952 | Ratio bait/Biot03 (MPP5 [3]): 12.9528 | Difference log2 (MAGI3): 2.908 | Ratio bait/Biot03 (MAGI3): 7.505 | Difference log2 (MAGI1): 6.509 | Ratio bait/biot (MAGI1): 91.0533 | Difference log2 (DLG1): 9.078 | Ratio bait/biot (DLG1): 540.448 | Difference log2 (LIN7C [4]): 5.541 | Ratio bait/biot (LIN7C [4]): 46.5688 | Difference log2 (SCRIB): 4.363 | Ratio bait/biot (SCRIB): 20.5739 | Difference log2 (CASK): 7.278 | Ratio bait/Biot03 (CASK): 155.163 | Difference log2 (LIN7C [5]): 8.47 | Ratio bait/Biot03 (LIN7C [5]): 354.524
